Values quoted from earlier work in patent US9585955B2 (priority 2005, dated 2017).

Conditions: 20° C. and 2 atm pressure

[N-]=[N+]=O [Nitrous oxide]
volume of water in which one liter of the gas dissolves: 1.5 L
